The subject of test [1] is tumor cells isolated from Math1-Cre/Ptch1^C/C animals (MB cells). Nature of the test: Nestin expression in cultured medulloblastoma tumor cells (immunostaining). In kind it is cell-based, mouse. As to the method: (§1) GNPs isolated from Ptch1^C/C animals were plated and infected with lentivirus carrying Cre recombinase to delete Ptch1. At 48 hrs following the infection, GNPs were stained for Cre (green) and Nestin (red) in control (Panel A) and in the presence of 20 ng/ml leukotriene (Panel B). MB cells were plated in vitro for 48 hrs, and stained for Nestin (red) in control (Panel C) and in the presence of 5 μM MK886. (Panel D).
Tumor cells isolated from Math1-Cre/Ptch1^C/C animals, were treated with 3 μM DMSO (Panels A and B) or MK886 (Panels C and D) in vitro. After 48 hrs treatment, tumor cells were harvested for immunostaining with antibodies against Nestin (red) and Ki67 (green) (Panels B and D). The same cultures were counterstained by DAPI (blue) to show the total cell number (Panels A and B).
To further examine whether Leukotriene synthesis is required for Nestin expression in tumor cells, tumor cells were isolated from the mouse model, which has already highly expresses Nestin in vivo, even in the culture at 48 hrs following plating.
It was next investigated whether leukotriene inhibition can prevent tumor cell proliferation. […] At 48 hrs after treatment, tumor cells were analyzed for proliferation by immunostaining for Ki67. […]

Test [2] shares this test system. Nature of the test: Tumor cell proliferation in vitro by Ki67 immunostaining. To be noted: 48 hrs treatment, 3 μM, vs DMSO (FIG. 5). The test is classed as cell-based, mouse.
Procedure: 48 hrs later, the percentage of proliferating cells was calculated after immunostaining the culture with antibody against Ki67.
Tumor cells isolated from the mouse model were treated with MK886 or DMSO as a control. At 48 hrs after treatment, tumor cells were analyzed for proliferation by immunostaining for Ki67.
DMSO was used as a negative control.
Test [3] deals with medulloblastoma in Math1-Cre/Ptch1^C/C animals. Kind of test: In vivo tumor growth in tumor bearing Math1-Cre/Ptch1^C/C animals. Further details: species or system mouse. As for the experimental part: Tumor bearing animals were treated with MK886 or DMSO by IP injection. After 1 month treatment, tumors were harvested. Tumor size was reduced by 30% with the treatment of MK886 (Panel A). After the treatment, tumors were sectioned for immunostaining for Nestin (Panels B and D), and Ki67 (Panels C and E). In the control (Panels B and C), tumor cells extensively express Nestin (Panel B) and all the tumor cells were Ki67 positive (Panel C).
Next, the efficacy of MK886 in inhibiting in vivo tumor growth was evaluated. Math1-Cre/Ptch1^C/C animals at postnatal day 21 were treated daily with 30 μg MK886 by intraperitoneal injection. Three weeks later, tumor volume was evaluated by MRI imaging.
Nestin expression and Ki67 was compared in tumor sections by immunohistochemical analysis.

For test [4], the system named is GBM cell lines T98G, U-87MG and U251. Kind of test: GBM cell viability by Alamar blue assay. In kind it is cell-based. To be noted: various concentrations, 48 hrs (FIG. 8). As for the experimental part:
Three GBM cell lines (T98G, U87-MG and U251) were plated and treated with MK886 and Montelukast at various concentrations for 48 hrs. Cell viability was measured by Alamar blue assay. Data represent the average of triplicate+SD. *p<0.05
To test the efficacy of leukotriene inhibitors in preventing glioblastoma cell proliferation, three GBM cell lines: T98G, U-87MG and U251 (purchased from an in-house cell culture facility) were utilized. The cell lines were treated with MK886 and Montelukast at different concentrations. After treatment for 48 hrs, cell survival and growth was analyzed by Alamar blue assay (Al-Nasiry, S et al. (2007) Hum. Reprod. 22:1304-9).
(In general: Alamar Blue is a resazurin reagent that responds to reducing activity.)

The test system of another test is Ptch1-deficient GNPs. Nature of the test: Induction of Nestin expression in Ptch1-deficient GNPs (immunocytochemistry). The test is classed as cell-based, mouse. To be noted: 20 ng/ml leukotriene, 48 hrs after Cre lentivirus infection. As for the experimental part:
as §1
Since Nestin is a cytoskeleton protein, it was examined whether leukotriene could induce Nestin expression in medulloblastoma cells. For this purpose, cerebellar GNPs were isolated from Ptch1^C/C animals, and Patched1 (Ptch1) was deleted from GNPs by using a lentivirus with Cre recombinase. At 48 hrs following the infection, cells were harvested to analyze Nestin expression by immunocytochemistry. […] The presence of Nestin mRNA and protein has been confirmed by RT-PCR and western blotting (data not shown).

The text below walks through data of patent US9616056B2, “Inhibition of leukotriene synthesis and activity in the treatment of sonic hedgehog-associated medulloblastoma” (Institute for Cancer Research, priority 2013, dated 2017).

“Also recorded” adds a separate entry of the source.

Consider `CC(C)c1ccc2c(c1)c(SC(C)(C)C)c(CC(C)(C)C(=O)[O-])n2Cc1ccc(Cl)cc1.[Na+]` [MK886, 1-[(4-Chlorophenyl)methyl]-3-[(1,1-dimethylethyl)thio]-α,α-dimethyl-5-(1-methylethyl)-1H-Indole-2-propanoic acid], for which the “Nestin expression in tumor cells” value in test [1] (48 hrs treatment, 3 μM, vs DMSO (FIG. 5)) was “markedly inhibited”. Further, the “Nestin expression among tumor cells” value in test [1] (MB cells plated in vitro 48 hrs, 5 μM MK886 (FIG. 4)) is given as “dramatically inhibited”. Besides, the “proliferation among tumor cells (Ki67)” value in test [2] is reported as “prevented the proliferation”. Further, in test [3] (30 μg MK886 daily intraperitoneal from postnatal day 21, three weeks, vs DMSO), the “decrease of tumor size in volume (MRI imaging)” value is recorded as “over 30%”. In addition, in test [3] (IP injection, after 1 month treatment, tumors harvested (FIG. 7 Panel A)), the tumor size reduction is on record as 30%. Moreover, the “Nestin expression in tumor sections after treatment” value in test [3] (immunostaining of tumor sections after MK886 treatment vs DMSO) was “dramatically reduced; also recorded: almost no Nestin is present”. In test [3] (tumor sections after MK886 treatment compared with control), the “number of Ki67 positive cells in tumor” value is “decreased dramatically”. Further, the “tumor cells still positive for Ki67” value in test [3] (tumor sections after MK886 treatment, control all cells Ki67 positive (FIG. 7 Panel E)) is “around 30%”. For the same molecule, the “viability of GBM cells” value in test [4] is given as “effectively reduce the viability”.

Turning to `CC(C)(O)c1ccccc1CC[C@@H](SCC1(CC(=O)O)CC1)c1cccc(/C=C/c2ccc3ccc(Cl)cc3n2)c1` [Montelukast, (R,E)-2-(1-((1-(3-(2-(7-chloroquinolin-2-yl)vinyl)phenyl)-3-(2-(2-hydroxypropan-2-yl)phenyl)propylthio)methyl)cyclopropyl)acetic acid], the “viability of GBM cells” value in test [4] was “effectively reduce the viability”.

Turning to leukotriene, the “Nestin protein among Ptch1-deficient GNPs” value in the test on Ptch1-deficient GNPs is “high level of Nestin protein was detected”.
